In brackets after ≈: the same amount, converted by molar mass. Several values for one entry are separate records, joined by “and”; a condition that tells them apart may be missing. Identical values can stand only once. Counter-ions that a name gives are not always drawn. Blank lines part the entries; values can stand above or below the compound they belong to.
Legend:
[1] = rhesus monkey, in vivo; cited from earlier work
[2] = Chromatographic purity (stability) of formulation inside implant after in-vitro exposure (UPLC/UV); assay type: physicochemical
[3] = In vitro release from PCL reservoir implants in PBS pH 7.4 at 37 °C (UV-Vis); assay type: physicochemical; conditions: for Daily RR: PCL 89 kDa
Description: The implants were incubated in 1×PBS (pH 7.4) at 37° C. Drug quantity released in media was measured via UV-Vis three times per week during which the implants were transferred to fresh buffer to maintain sink conditions. Drug concentrations were determined by correlating UV absorbance values to a standard curve. Standard curves involved measuring peak absorbance values as a function of drug concentrations diluted by half from bulk solutions. Peak absorbance values were determined by scanning the dilute drug solutions from 230 to 700 nm at a step size of 1 nm and assessing the maximum UV absorbance value.
Testing was performed to evaluate release kinetics of varying formulations of active agent and excipient. In particular, the release mechanism and release profiles for TAF formulated with varying mass quantities of castor oil from extruded PCL tubes was evaluated. Heat extruded PCL devices were fabricated (2.5 mm×40 mm) using 80 kDa Sigma grade PCL. […] For the in vitro release studies, devices were incubated in 40 mL of phosphate buffered saline (PBS) at pH 7.4 in a shaking incubator at 37° C. The implants were transferred to fresh buffer three times per week to maintain sink conditions.
Testing was performed to evaluate the in vitro release profile for an exemplary segmented device. In-vitro conditions included a simulated physiological media of a salt solution at pH between 6.5 and 7.5 at a temperature of 37° C. The exemplary device was engineered to release two APIs simultaneously, both at zero-order release kinetics. The device was fabricated with a segmented architecture that contained LNG formulated with ethyl oleate at a 1:4 ratio and EFdA formulated with castor oil at a 1:1 ratio and housed in separate compartments within a single implant design. Different segment lengths, polymer membrane thicknesses and polymer properties were tested.
In vitro release characterization involved incubation of the implants in 40 mL 1× phosphate buffered saline (PBS) (pH 7.4) at 37° C. and placed on an orbital shaker. […] The release buffer was sampled three times per week during which the devices were transferred to 40 mL of fresh buffer to maintain sink conditions. TAF quantity released in each PBS buffer during the time interval was calculated and cumulative mass of drug release as a function of time was determined.

physchem = conditions: 37 °C, organic solvent or mixture, thermodynamic from solid, Solubility
Description: Over a 24-hour period, the solutions were mixed periodically and returned to the water bath. After approximately 72 hours, the solutions were removed from the water bath and appearance recorded for each of the saturated solutions. […] The supernatants were prepared for analysis by UPLC. Triplicate weighed aliquots were prepared from the collected supernatants and analyzed for assay using a UPLC/UV method. The analysis was performed using a Waters BEH C18 column (2.1 mm×50 mm, 1.7 μm) under gradient, reversed phase conditions with detection at 260 nm. The saturated solutions were quantitated by linear regression analysis against a 5-point calibration curve.
Testing using the same methodology was performed for EFdA, LNG, and ENG using various excipients.

[4] = In vivo study of one or two subcutaneous PC12 implants, 90 days (Example 20); parameters: species or system New Zealand white rabbits; conditions: hormone in subcutaneous implant
Description: In vivo analysis was performed with 20 naïve New Zealand white rabbits. […] In particular, female NZW rabbits each received two subcutaneous implants bilaterally inserted into the subscapular region: (1) one implant that contained an ARV drug and (2) one implant that contained a hormonal contraceptive drug. Both implants remained in the subcutaneous space for 90 days. Blood samples were taken at 0, 1, 3, 7, […], 45, 60, 75, and 90 days. After 90 days, the animals were euthanized, and the implants were retrieved. Tissues were collected and analyzed for levels of ARVs (TFV, TAF, and TFV-DP). As a comparator for the dual insertion modality, each female NZW rabbit in a separate group received a single implant, where each implant contained a single drug formulation: either ARV or hormone. The implant remained in the subcutaneous space for 90 days. Blood samples were taken at 0, 1, 3, 7, 15, 30, 45, 60, 75, and 90 days. After 90 days, the animals were euthanized, and the implants were retrieved. Tissues were collected and analyzed for levels of ARVs (TFV, TAF, and TFV-DP). The polymer was PC12.

[5] = Evaluation of Elvitegravir for use in the device
Description: Elvitegravir, which is marketed by Gilead, was also evaluated.

[6] = Stability of Naltrexone base in excipients; assay type: physicochemical; conditions: stability results
[7] = Naltrexone excipient screen, rapid solubility assay; assay type: physicochemical
Description: Heat extruded polycaprolactone (PCL) tubes were fabricated (2.5 mm×40 mm) using 80 kDa PCL to produce devices with 70 μm and 100 μm wall thicknesses. […] In vitro release studies involved incubation of devices in 40 mL of phosphate buffered saline (PBS), pH 7.4 in a shaking incubator at 37° C. Implants were transferred to fresh buffer three times per week to maintain sink conditions. The concentration of drugs released in media over time was measured via UV-vis spectroscopy. Solubility, stability, and purity of APIs in excipient were evaluated via HPLC.

[8] = segmented implant: ENG:sesame oil 2:1 (10 mm, 200 μm) + TAF base:castor oil 2:1 (40 mm, 70 μm)
[9] = segmented implant: ENG:sesame oil 2:1 (10 mm, 200 μm) + TAF base:sesame oil 2:1 (40 mm, 70 μm)

Structure (SMILES): CC(Cn1cnc2c(N)ncnc21)OCP(=O)(O)OP(=O)(O)OP(=O)(O)O (stereo in doubt) [TFV-DP, tenofovir diphosphate]
duration of sustained levels in PBMCs [1]: 83 days

% Purity at Day-365 ([2]; EFdA with castor oil): 99.3% | % Purity at Day-365 ([2]; EFdA with ethyl oleate): 99.4% | % Purity at Day-365 ([2]; EFdA with glycerol): 99.5% | % Purity at Day-365 ([2]; EFdA with propylene glycol): 99.5% | % Purity at Day-365 ([2]; EFdA with sesame oil): 99.3% | stability within an exemplary implant ([2]; after 1 year in in-vitro conditions): ~99% | purity after 1 year of exposure to in-vitro conditions ([2]; all EFdA implants, Day-365): > 99% | release rate for the glycerol device ([3]; 70 μm wall, FIG. 11C study): 30 μg of EFdA/day | release rate for the sesame oil device ([3]; 70 μm wall, FIG. 11C study): 8 μg of EFdA/day | duration of sustained linear release ([3]; EFdA castor oil devices, 70 μm, medical grade PCL): 1 year | exposure after which release deviated from zero-order ([3]; EFdA formulations other than castor oil): > 200 days | duration of zero-order kinetics ([3]; EFdA segment of segmented implant): 1 year | duration of sustained, zero order release ([3]; EFdA with varying excipients, 70 μm wall): over 60 days | duration of sustained zero-order release ([3]; EFdA-castor oil devices, 80 KDa PCL, 70 μm wall): 200 days | Release Rate (μg/day, 10 mm device) ([3]; EFdA:castor oil 1:1, 70 μm wall): 10 µg/day and 10.0 µg/day | Release Rate (μg/day, 10 mm device) ([3]; EFdA:ethyl oleate 1:1, 70 μm wall): 13.0 µg/day | Release Rate (μg/day, 10 mm device) ([3]; EFdA:glycerol 1:1, 70 μm wall): 15 µg/day and 15.0 µg/day | Release Rate (μg/day, 10 mm device) ([3]; EFdA:propylene glycol 1:1, 70 μm wall): 11.0 µg/day | Release Rate (μg/day, 10 mm device) ([3]; EFdA:sesame oil 1:1, 70 μm wall): 12.0 µg/day | duration of sustained linear release ([3]; exemplary EFdA formulations, summary statement): over 1 year | release profile / release rate ([3]; exemplary formulations/devices, summary statement): 5 to 30 µg/day | duration of zero-order release ([3]; segmented implant LNG/EFdA): 6 months | release rate of segment ([3]; segmented implant: LNG:ethyl oleate 1:4 and EFdA:castor oil 1:1, 70 μm wall, EFdA after burst of first 10 days): ~20 µg/day | solubility at 72 h (physchem): 34.9 mg/mL (≈ 119 mM)
Structure (SMILES): C#C[C@]1(CO)O[C@@H](n2cnc3c(N)nc(F)nc32)C[C@@H]1O [EFdA]

% Purity at 180 Days ([2]; after 180-day in-vitro exposure, 200 μm implants per b165 (second listing in Table 5)): 99% | stability within an exemplary implant ([2]; tested at 180 days in in-vitro conditions): > 99% | Release rate ([3]; 10 mm-long devices, 200 μm implants per b165 (second listing in Table 5)): ~30 µg/day | start of deviation from linear release ([3]; ENG 1:4 and 1:1 drug to excipient ratios, depletion of drug): ~50 days | duration of sustained release with zero-order kinetics ([3]; ENG 2:1 ratio with castor oil or sesame oil): approximately 300 days | sustained period of release at about 30 μg/day ([3]; exemplary device, in vitro conditions): up to 180 days | duration of linear release profile in vitro ([3]; exemplary formulations, summary statement): 230 days | Daily RR [3, 8]: 26.2 ± 7.1 µg/day | Daily RR [3, 9]: 26.3 ± 6.7 µg/day | duration of zero-order release from segmented implants ([3]; segmented implants of TAF with LNG or ENG): 50 days | stability in vivo for 90 days [4]: 99.5%
Structure (SMILES): C#C[C@]1(O)CC[C@H]2[C@@H]3CCC4=CC(=O)CC[C@@H]4[C@H]3C(=C)C[C@@]21CC [ENG, Etonogestrel]

aqueous solubility [5]: low
Structure (SMILES): COc1cc2c(cc1Cc1cccc(Cl)c1F)c(=O)c(C(=O)O)cn2[C@H](CO)C(C)C [Elvitegravir]

Structure (SMILES): Nc1nc(=O)n([C@@H]2CS[C@H](COP(=O)(O)OP(=O)(O)OP(=O)(O)O)O2)cc1F [FTC-TP, FTC-triphosphate]
duration of sustained levels in PBMCs [1]: 28 days

stability within an exemplary implant ([2]; tested at 240 days in in-vitro conditions): greater than 92% | stability in vivo for 90 days [4]: 99.2%±0.1
Structure (SMILES): C#C[C@]1(O)CC[C@H]2[C@@H]3CCC4=CC(=O)CC[C@@H]4[C@H]3CC[C@@]21CC [LNG, Levonorgestrel]

Structure (SMILES): O=C1CC[C@@]2(O)[C@H]3Cc4ccc(O)c5c4[C@@]2(CCN3CC2CC2)[C@H]1O5 [Naltrexone Base, Naltrexone]
Sum of impurities (% total area) ([6]; with PEG600): 5.10% | Sum of impurities (% total area) ([6]; with castor oil): 5.20% | Sum of impurities (% total area) ([6]; with ethyl oleate): 9.90% | Sum of impurities (% total area) ([6]; with sesame oil): 6.40% | Sum of impurities (% total area) ([7]; API alone, no excipient (reference line)): 2.50% | Sum of impurities (% total area) ([7]; excipient screen, in PEG600): 2.10% | Sum of impurities (% total area) ([7]; excipient screen, in castor oil): 4.50% | Sum of impurities (% total area) ([7]; excipient screen, in ethyl oleate): 9.60% | Sum of impurities (% total area) ([7]; excipient screen, in sesame oil): 3.20% | Assay ([7]; in PEG600): 46.2 mg/mL | Assay ([7]; in castor oil): 9.63 mg/mL | Assay ([7]; in ethyl oleate): 2.79 mg/mL | Assay ([7]; in sesame oil): 4.62 mg/mL

Structure (SMILES): O=C1CC[C@@]2(O)[C@H]3Cc4ccc(O)c5c4[C@@]2(CCN3CC2CC2)[C@H]1O5 [Naltrexone Salt, Naltrexone hydrochloride]
Sum of impurities (% total area) ([7]; API alone, no excipient (reference line), hydrochloride): 4.10% | Assay ([7]; in PEG600, hydrochloride): <0.1 mg/mL | Assay ([7]; in castor oil, hydrochloride): <0.1 mg/mL | Assay ([7]; in ethyl oleate, hydrochloride): No measurable solubility | Assay ([7]; in sesame oil, hydrochloride): No measurable solubility

Structure (SMILES): CC(C)OC(=O)[C@H](C)N[P@](=O)(CO[C@H](C)Cn1cnc2c(N)ncnc21)Oc1ccccc1 [TAF base]
Daily RR [3, 8]: 94.8 ± 17.6 µg/day | Daily RR [3, 9]: 57.9 ± 8.6 µg/day | Daily RR ([3]; segmented implant: LNG:sesame oil 2:1 (20 mm, 70 μm) + TAF base:castor oil 2:1 (30 mm, 70 μm)): 86.4 ± 10.3 µg/day | Daily RR ([3]; segmented implant: LNG:sesame oil 2:1 (20 mm, 70 μm) + TAF base:sesame oil 2:1 (30 mm, 70 μm)): 47.7 ± 6.7 µg/day
